Measured values reported in patent publication US10300027B2, “Effective sensitizing dose of a gelled immunomodulating topical composition” (Phio Pharmaceuticals Corp., priority 2010, dated 2019).
Values joined by “and” are separate entries in the source; they are usually repeats but may differ in a detail not shown here. Equal values may be shown once.

Tests used:
non-genital warts [1] = assay: Example 1: randomized, double-blind, placebo control study of low dose DPCP gel for non-genital warts; type: in vivo, human
Description: Patients were initially sensitized with 0.4% DPCP gel at the primary wart site. Approximately 14 days later and weekly thereafter for various periods, a challenge dose is then applied. A challenge dose of 0.04% DPCP was employed. The DPCP used was incorporated in a unique blend of surfactants, a viscosity agent, and a preservative.
A single center, randomized, double-blind, placebo control study using low dose DPCP in a non-volatile vehicle for the treatment of non-genital warts was conducted. Patients were assigned to a treatment or placebo group in a 2:1 fashion. The two study gels were identical in appearance. The treatment group was sensitized with 0.1 ml of 0.4% DPCP gel which was applied to the inner arm and washed off in 24 hours. Fourteen days after the sensitization dose, 0.1 ml of 0.04% DPCP gel was applied to each wart, up to a total of 4 warts, for 7 consecutive weeks (Day 14, 21, 28, 35, 42, 49, 56). A final follow-up examination was performed on day 70. Patients were assessed at baseline and during each of 7 week treatment visits and on day 70 follow up.
Efficacy was based on Lesion Surface Area. The size of each qualifying verruca wart was determined at each visit by measuring the longest dimension (long axis) and the corresponding widest dimension (90 to the long axis).
Immunotherapeutic responses were characterized by grading the erythema, edema, induration, and scaling on a four-point scale: 0 (none) to 4 severe at each visit.
(§1) Efficacy endpoints were determined based on the percent of patients achieving complete and partial eradication as measured by IGAS and reductions in warts lesion surface area. Subjects were assessed for the extent of their immunotherapeutic response to treatment based upon the degree of erythema, edema, induration and scaling. Safety was evaluated at each visit by recording and grading adverse events and ease of ambulation 4 point grading system was used.
Adults 18-75 years of age in general good health with at least one non-genital cutaneous wart 5-20 mm in size were eligible for participation in the study. […] Pregnant or nursing women were excluded. Patients with unstable medical condition or history of immunosuppression were excluded. Use of systemic steroids, immunosuppressants, immunomodulators or cimetidine was not allowed for 4 weeks prior to enrollment. Any prior wart therapy was not allowed for 4 weeks. […] Patients could not be actively enrolled in another clinical trial within the previous 30 days.

non-genital warts [2] = assay: Example 2: randomized, double-blind, placebo control study, 0.04% DPCP gel twice a week for non-genital warts; type: in vivo, human; parameters: key to Clearance Score: 3 points=Complete clearance; 2 points=partial clearance: >50% reduction in the area of all treated wart; 1 point=partial eradication: <50% reduction in the area of all treated warts; 0 points=treatment failure: complete or partial eradication not achieved; settings: for Clearance Score: per wart of one subject
Description: Institutional review board approval was obtained for this study, which was performed using Good Clinical Practice Guidelines and was compliant with the Code of Federal Regulation of the US Food and Drug Administration. A single center, 24 subject, randomized, double-blind, placebo control study using low dose DPCP in a non-volatile vehicle for the treatment of non-genital warts of established.
Patients are assigned to a treatment or placebo group in a 2:1 fashion. The two study gels are identical in appearance. Both groups are sensitized with 0.1 ml of 0.4% DPCP gel which is applied to the inner arm and washed off in 24 hours. Fourteen days after the sensitization dose, 0.1 ml of 0.04% DPCP gel or placebo is applied to each wart, up to a total of 4 warts, […] for 7 consecutive weeks (Day 14, 21, 28, 35, 42, 49, 56, […]). A final follow-up examination is performed on day 77. Patients are assessed at baseline and during office visits on days 14, 28, and 63 and on the day 77 follow up visit.
Efficacy is based on Lesion Surface Area. The size of each qualifying verruca wart is determined at each visit by measuring the longest dimension (long axis) and the corresponding widest dimension (90 to the long axis).
Investigator's Global Assessment Score (IGAS) is calculated based upon the following 4 point scale: 3 points=Complete clearance; 2 points=partial clearance: >50% reduction in the area of all treated wart; 1 point=partial eradication: <50% reduction in the area of all treated warts; 0 points=treatment failure: complete or partial eradication not achieved.
Immunotherapeutic responses are characterized by grading the erythema, edema, induration, and scaling on a four-point scale: 0 (none) to 4 severe at each visit.
as §1, with “are” for “were”, “is” for “was”
All subjects (both treated and placebo groups) are sensitized with the initial sensitizing dose of 0.4% DPCP gel applied directly to one target wart and to the inner aspect of the right arm and then covered with an occlusive adhesive bandage pad for 24 hours.
The Investigator can determine if sensitization occurred at either of the application sites. If on day 14, the first “treatment visit”, no visible evidence of skin sensitization is observed then the subject can be dropped from the study. If on day 14 the investigator determines that sensitization has occurred, than the first treatment dose using the challenge dose (0.04% DPCP gel or placebo) randomly assigned upon enrollment can be administered by the investigator to all target warts and then covered with an occlusive adhesive bandage pad for 24 hours.
The patient is provided with a tube containing the appropriate challenge product (0.04% DPCP gel or placebo) with detailed instructions on how to apply the product two times per week and the proper handling and storage of the product between applications.
Two times per week the patient can apply the treatment dose (0.04% DPCP gel or placebo) to all target warts and then cover with an occlusive adhesive bandage pad for 24 hours.
The Investigator can apply the treatment dose (0.04% DPCP gel or placebo) to all target warts and then cover with an occlusive adhesive bandage pad for 24 hours.
The Investigator can apply the treatment dose (0.04% DPCP gel or placebo) to all target warts and then cover with an occlusive adhesive bandage pad for 24 hours. […] This is the final treatment. The patient is instructed to stop at home treatments and should return any unused gel. […]

[3] = general statement, no test described; cited from earlier work
[4] = 0.4% sensitizing dose, 0.04% challenge dose weekly
[5] = 0.4% sensitizing dose, 0.04% challenge dose twice a week

O=c1c(-c2ccccc2)c1-c1ccccc1 [DPCP, diphenylcyclopropenone]
side effects reported (non-genital warts [1]; [4]): No significant side effects were reported other than skin rash at the sensitization site | tolerability reported by patients (non-genital warts [1]; [4]): highly tolerable | subjects who obtained a clinical response/improvement (non-genital warts [1]; DPCP group, 8 subjects, 0.4% sensitizing dose, then 0.04% gel weekly for 7 weeks): 100% | warts with complete clearance (non-genital warts [1]; DPCP group, 11 of 25 warts, vs 1 of 15 vehicle treated warts, p=0.01): 44% | warts with partial to complete clearance (non-genital warts [1]; DPCP group, 19/25 warts, 0.4% sensitizing dose, then 0.04% gel weekly for 7 weeks): 76% | severe reactions at the application site (non-genital warts [1]; challenge dose of 0.04% DPCP after 0.4% sensitizing dose): did not result in observable severe reactions at the application site | surrounding untreated warts completely cleared (non-genital warts [1]; one subject with numerous mosaic warts on the plantar foot, the 4 treated warts also completely cleared): > 50 | sensitization (non-genital warts [2]; 0.4% DPCP sensitization dose given to both treatment and placebo group, 7 subjects): all were successfully sensitized | side effects reported (non-genital warts [2]; [5]): No significant side effects were reported other than skin rash at the sensitization site | tolerability reported by patients (non-genital warts [2]; [5]): highly tolerable | treated warts that achieved greater than 50% clearance (non-genital warts [2]; DPCP group, 1 of 6 warts): 16% | treated warts that exhibited no clearance (non-genital warts [2]; DPCP group, 1 of 6 warts): 16% | treated warts with complete clearance (non-genital warts [2]; DPCP group, 4/6 warts, 0.04% gel twice a week): 67% | subjects who obtained a clinical response/improvement (non-genital warts [2]; DPCP group, 4 of 5 subjects, 0.04% gel twice a week for 7 weeks): 80% | Clearance Score (non-genital warts [2]; at 5 weeks, 0.04% gel twice a week): 5 weeks + 3 | Clearance Score (non-genital warts [2]; at 7 weeks, 0.04% gel twice a week, listed as DPC): 7 weeks 0 and 7 weeks + 3 (3×) and 7 weeks + 2 (2 points=partial clearance: >50% reduction in the area of all treated wart) | mutagenicity, teratogenicity and organ toxicity [3]: not mutagenic, teratogenic and has no organ toxicity
